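Tested at 5 concentrations; 48 h exposure; 96-well plates; endpoints linearly interpolated, else capped at highest concentration. GI50 marks 50% less growth. TGI denotes the concentration required for complete inhibition of growth.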
Key:
Assay in all cases: NCI tumour cell line growth inhibition, 48 h
SF-295 CNS = tested on: SF-295 CNS
CAKI-1 renal = tested on: CAKI-1 renal
SK-MEL-28 melanoma = tested on: SK-MEL-28 melanoma
MALME-3M melanoma = tested on: MALME-3M melanoma
RPMI-8226 leukemia = tested on: RPMI-8226 leukemia
NCI-H460 lung = tested on: NCI-H460 lung
HT29 colon = tested on: HT29 colon
SNB-19 CNS = tested on: SNB-19 CNS
NCI/ADR-RES ovarian = tested on: NCI/ADR-RES ovarian
DU-145 prostate = tested on: DU-145 prostate

SMILES	TGI (SF-295 CNS) [µM]	TGI (CAKI-1 renal) [µM]	TGI (SK-MEL-28 melanoma) [µM]	TGI (MALME-3M melanoma) [µM]	TGI (RPMI-8226 leukemia) [µM]	TGI (NCI-H460 lung) [µM]	TGI (HT29 colon) [µM]	TGI (SNB-19 CNS) [µM]	TGI (NCI/ADR-RES ovarian) [µM]	TGI (DU-145 prostate) [µM]	GI50 (SF-295 CNS) [µM]	GI50 (NCI/ADR-RES ovarian) [µM]	GI50 (SK-MEL-28 melanoma) [µM]	GI50 (MALME-3M melanoma) [µM]	GI50 (RPMI-8226 leukemia) [µM]	GI50 (DU-145 prostate) [nM]	GI50 (NCI-H460 lung) [nM]	GI50 (HT29 colon) [µM]	GI50 (SNB-19 CNS) [µM]	GI50 (CAKI-1 renal) [nM]
CCOC(=O)C(=O)C1C(=O)Nc2ccccc21 (stereo not given)	> 100	> 100	> 100	> 100	> 100	> 100	> 100	> 100	–	–	–	–	–	–	–	–	–	–	–	–
C[N+](C)([O-])CCCNc1c2ccccc2nc2cccc([N+](=O)[O-])c12	15	11.6	–	0.419	–	0.707	0.606	3.2	75.6	1.49	–	–	–	–	–	–	–	–	–	–
Cn1cc(NC(=O)c2cc(NC(=O)Nc3cc(C(=O)Nc4cc(C(=O)NCCC(=N)N)n(C)c4)n(C)c3)cn2C)cc1C(=O)NCCC(=N)N	86	92.1	> 100	> 100	–	55.3	> 100	> 100	–	–	–	–	–	–	–	–	–	–	–	–
O=c1[nH]c(=O)n(C2CC(O)C(CO)O2)cc1C(OCC(F)(F)F)OCC(F)(F)F (stereo not given)	> 100	> 100	> 100	> 100	> 100	> 100	> 100	> 100	–	–	–	–	–	–	–	–	–	–	–	–
CC(=O)O[C@H]1CC[C@@]2(C)C(CC[C@]3(C)C2CC[C@]2(C)Oc4c(C)cc(O)cc4C[C@@H]23)C1(C)C (stereo not given in full)	5.09	21.8	22.9	22.8	6.96	16.5	23.9	14.4	–	–	–	–	–	–	–	–	–	–	–	–
NC1C2C(CC(=O)O)OCC=C3CN4CCC1(C(=O)C(=O)O)C4CC32 (stereo not given)	> 100	> 100	> 100	> 100	–	> 100	> 100	> 100	> 100	> 100	–	–	–	–	–	–	–	–	–	–
CC1=C(C)CC2(SC1)C(=O)c1ccccc1C2=O	> 100	> 100	–	> 100	> 100	> 100	> 100	> 100	–	–	–	–	–	–	–	–	–	–	–	–
COc1ccccc1/C=C1\CCC(CNc2ccc(Cl)cc2)C1=O (stereo not given)	15.4	13.6	26.4	28.4	6.72	20.9	22.9	25	–	–	–	–	–	–	–	–	–	–	–	–
C=C1C(=O)O[C@H]2[C@H]1CC/C(CNS(=O)(=O)c1ccc3ccccc3c1)=C\CC[C@@]1(C)O[C@@H]21	20.9	–	3.57	4.59	4.5	24.3	3.91	26.7	31.7	3.56	7.49	7.11	1.57	1.94	1.46	1340	8140	1.94	12	–
O=C1CCC2CCc3cccc4oc1c2c34 (stereo not given)	84.1	> 100	> 100	–	> 100	> 100	> 100	> 100	–	–	–	–	–	–	–	–	–	–	–	–
CCN(CC)CC(=O)/C=C/c1ccc(C)cc1	88.1	31.7	43	41.2	> 100	46	45.1	> 100	–	–	–	–	–	–	–	–	–	–	–	–
CNS(=O)(=O)NN(C)S(=O)(=O)c1ccc(Cl)cc1	> 100	> 100	–	> 100	> 100	–	> 100	> 100	–	–	–	–	–	–	–	–	–	–	–	–
CCOCC(=O)N[C@H]1CCc2cc(OC)c(OC)c(OC)c2-c2ccc(SC)c(=O)cc21	0.253	> 45.8	> 100	> 100	> 100	0.398	–	> 100	–	0.0582	–	–	–	–	–	–	–	–	–	–
ON(CCc1ccncc1)Cc1ccccc1	> 100	> 100	> 100	> 100	> 100	–	> 100	> 100	> 100	> 100	–	–	–	–	–	–	–	–	–	–
COc1ccc(S(=O)(=O)N/N=C/CN2C(=O)c3ccccc3C2=O)cc1OC	> 100	> 100	–	> 100	> 100	> 100	> 100	> 100	–	–	–	–	–	–	–	–	–	–	–	–
Cn1ccnc1C(c1nccn1C)C(C)(C)[N+](=O)[O-]	> 100	> 100	> 100	–	> 100	> 100	–	–	–	–	–	–	–	–	–	–	–	–	–	–
O=C1O[C@H](C(Cl)(Cl)Cl)N2CCCC12 (stereo not given in full)	> 100	> 100	> 100	> 100	> 100	> 100	> 100	> 100	–	–	–	–	–	–	–	–	–	–	–	–
N=S(=O)(c1ccccc1)c1ccccc1[N+](=O)[O-] (stereo not given)	> 100	> 100	–	> 100	> 100	> 100	> 100	> 100	–	–	–	–	–	–	–	–	–	–	–	–
CC1CCc2c(sc3ncnc(N/N=C/c4ccc(Cl)c(Cl)c4)c23)C1 (stereo not given)	43.2	56.6	> 100	> 100	> 100	42.2	> 100	74.3	–	–	–	–	–	–	–	–	–	–	–	–
C=CCC12CCC(=O)C=C1CCC1(C2)OCCO1 (stereo not given)	–	> 100	> 100	> 100	> 100	> 100	–	> 100	–	–	–	–	–	–	–	–	–	–	–	–
OCCN(CCO)c1cccc(N(CCO)CCO)c1	> 100	> 100	> 100	–	> 100	> 100	–	> 100	–	–	–	–	–	–	–	–	–	–	–	–

SMILES	TGI (SF-295 CNS) [µM]	TGI (CAKI-1 renal) [µM]	TGI (SK-MEL-28 melanoma) [µM]	TGI (MALME-3M melanoma) [µM]	TGI (RPMI-8226 leukemia) [µM]	TGI (NCI-H460 lung) [µM]	TGI (HT29 colon) [µM]	TGI (SNB-19 CNS) [µM]	TGI (NCI/ADR-RES ovarian) [µM]	TGI (DU-145 prostate) [µM]	GI50 (SF-295 CNS) [µM]	GI50 (NCI/ADR-RES ovarian) [µM]	GI50 (SK-MEL-28 melanoma) [µM]	GI50 (MALME-3M melanoma) [µM]	GI50 (RPMI-8226 leukemia) [µM]	GI50 (DU-145 prostate) [nM]	GI50 (NCI-H460 lung) [nM]	GI50 (HT29 colon) [µM]	GI50 (SNB-19 CNS) [µM]	GI50 (CAKI-1 renal) [nM]
CCNc1c(C(=O)N(CC)CC)c(=O)[nH]c2ncccc12	> 100	> 100	> 100	> 100	> 100	> 100	> 100	> 100	–	–	–	–	–	–	–	–	–	–	–	–
O=C(Nc1c(Cl)cc([N+](=O)[O-])cc1Cl)C(=O)C1C(=O)NC(=S)NC1=O	> 100	> 100	> 100	> 100	> 100	> 100	> 100	> 100	> 100	–	–	–	–	–	–	–	–	–	–	–
Nc1ccc(-c2nc3ccccc3[nH]2)c(O)c1	63.4	58.1	> 100	–	52.3	> 100	> 100	> 100	81.1	> 100	26.5	27.8	53.9	–	17	38900	30400	41	66.8	27100
CCCCCCCCCCCCCCCC(=O)OCC1OC(n2cnc3c(=S)nc(N)[nH]c32)C(OC(=O)CCCCCCCCCCCCCCC)C1OC(=O)CCCCCCCCCCCCCCC (stereo not given)	24.4	> 14.8	> 50	> 50	–	> 22.6	> 50	> 50	> 50	> 50	1.63	4.46	> 39	> 28.3	–	1980	2800	3.22	> 50	1050
COc1ccc(Nc2ncccc2/C=C/C(=O)c2cc(OC)c(OC)c(OC)c2)cc1	5.59	3.88	2.66	2.87	–	4.25	3.16	6.33	13.7	2.93	1.85	2.23	1.37	1.4	–	1590	2010	1.6	2.14	1520
CS(=O)(=O)N(CCC#N)c1ccc(/C=N/NC(=O)CC(=O)Nc2cccc(Cl)c2)cc1	> 100	> 100	> 100	> 100	> 100	> 100	> 100	> 100	–	–	–	–	–	–	–	–	–	–	–	–
O=Nc1c(-c2cccc([N+](=O)[O-])c2)nc2cnccn12	> 100	43	50.3	56.5	–	> 100	40.1	> 100	54.5	40.2	–	–	–	–	–	–	–	–	–	–
O=C1c2ccccc2-c2nccc3cc(Cl)nc1c23	> 88.9	> 100	15.8	2.42	3.35	12.2	–	74.8	> 72.9	–	4.61	5.16	2.22	0.908	0.705	–	3000	–	20.7	> 100000
N#CCCN(CCC#N)c1ccc(/C=C2\N=C(COc3ccc(Cl)cc3Cl)OC2=O)cc1	> 100	> 100	> 100	> 100	> 100	> 100	> 100	> 100	–	–	–	–	–	–	–	–	–	–	–	–
Cc1cc2c(cc1C)[n+](=O)c(C(=O)/C=C/c1ccc(Cl)cc1)c(C)n2[O-]	69.3	> 100	59.4	> 100	60.5	62.7	95.5	> 100	–	–	–	–	–	–	–	–	–	–	–	–
O=c1[nH]c(-c2ccccc2)nc2ccc(Cl)cc12	> 100	> 100	> 100	> 100	> 100	–	> 100	> 100	–	–	–	–	–	–	–	–	–	–	–	–
CS(=O)(=O)OCCN1CCN(C(=O)c2cccc3c(Nc4ccc(S(N)(=O)=O)cc4)c4ccccc4nc23)CC1	> 100	> 100	> 100	> 100	> 66.1	> 100	> 100	> 72.6	–	–	–	–	–	–	–	–	–	–	–	–
COc1cc([C@@H]2c3cc4c(cc3C(Br)[C@H]3COC(=O)[C@H]23)OCO4)cc(OC)c1OC (stereo not given in full)	–	> 48.4	> 100	> 100	> 100	0.547	2.85	> 100	–	0.646	0.0859	–	53.5	51.3	0.507	252	204	0.289	0.553	117
Cc1ccc2c[c]1[Hg][CH2]COS2(=O)=O	–	–	29.9	34	–	> 100	31.8	> 100	62.1	32.8	–	25	16.4	19.8	–	18800	> 100000	17.9	> 100	–
NC1CCCCC1N.O=C([O-])P(=O)([O-])[O-].[Na+].[Pt+4] (stereo not given)	> 100	–	> 100	> 100	> 100	> 100	> 100	> 100	–	–	> 100	–	> 100	84.3	22.2	–	55500	> 100	> 100	–
C[C@]12CC/C(=N\N)C[C@@H]1CC[C@@H]1[C@@H]2CC[C@]2(C)/C(=N/N)CC[C@@H]12	> 100	> 100	–	> 100	> 100	> 100	> 100	–	> 100	> 100	> 100	> 100	–	> 100	> 100	> 100000	> 100000	> 100	–	> 100000
O=S(=O)([O-])[O-].[Cl-].[NH2-].[NH2-].[NH2-].[NH2-].[Ru+3].c1ccc(-c2cccnc2)cc1	> 100	> 100	> 100	> 100	> 100	> 100	> 100	–	–	–	> 100	–	> 100	> 100	> 100	–	> 100000	> 100	–	> 100000
O=C(CC1(O)C(=O)Nc2ccc(Br)cc21)c1ccc(Cl)cc1 (stereo not given)	> 100	–	> 100	> 100	> 100	> 100	> 100	> 100	–	–	–	–	–	–	–	–	–	–	–	–
COc1cccc2c1C1(O)C2CCCC12OCCCO2 (stereo not given)	> 100	> 100	> 100	> 100	> 100	> 100	> 100	> 100	–	–	–	–	–	–	–	–	–	–	–	–
CCN(CC)c1ccc(N=C2C=CC(=O)c3ncccc32)c(C)c1	22.9	23.4	24.5	12.5	> 100	21.8	29.2	29.8	–	–	–	–	–	–	–	–	–	–	–	–
c1cc(C2CCCCC2)ccc1OCCCCCCN1CCNCC1	3.77	4.54	8.76	3.86	–	3.43	2.98	–	5.14	3.42	1.92	2.36	2.96	1.99	–	1880	1840	1.45	–	2010

Reference: PubChem BioAssay (NCI)
